Experimental findings from patent US8519145B2, “Aryl compounds as PPAR ligands and their use” (Seoul National University Industry Foundation, priority 2006, dated 2013) are described below.

The target of one assay is T1, hPPARα (Homo sapiens, UniProt Q07869).
T1 construct: Full length PPARs plasmid DNA; expressed in transfected cells; host or cells: CV-1 cells
T1 sequence (Q07869 1-468): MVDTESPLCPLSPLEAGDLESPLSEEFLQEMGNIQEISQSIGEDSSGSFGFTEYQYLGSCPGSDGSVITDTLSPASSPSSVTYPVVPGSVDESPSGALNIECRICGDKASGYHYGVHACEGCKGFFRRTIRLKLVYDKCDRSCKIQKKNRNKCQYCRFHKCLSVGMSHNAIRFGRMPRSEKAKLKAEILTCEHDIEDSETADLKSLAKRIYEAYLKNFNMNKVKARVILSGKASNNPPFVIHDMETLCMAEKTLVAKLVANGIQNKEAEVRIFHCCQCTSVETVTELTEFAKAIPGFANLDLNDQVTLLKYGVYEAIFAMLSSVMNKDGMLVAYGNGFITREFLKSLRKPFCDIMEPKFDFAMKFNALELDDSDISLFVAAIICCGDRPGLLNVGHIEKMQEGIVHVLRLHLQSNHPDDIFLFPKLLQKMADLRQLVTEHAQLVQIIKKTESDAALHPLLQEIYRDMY
Kind of assay: Transfection assay (luciferase reporter), PPARα. The assay is classed as cell-based. Conditions: CV-1 cells, full length PPAR plasmid, 24 hours. As to the method: (§1) The PPARδ activity of the compound represented by formula (I) of the present invention was confirmed by transfection assay. In addition, the selectivity to PPAR subtypes, PPARα and PPARγ was examined. Cytotoxicity was tested by MTT assay and in vivo activity was investigated by animal experiment.
(§2) CV-1 cells were used in this assay. The cells were inoculated in a 96-well plate containing DMEM supplemented with 10% FBS, DBS (delipidated) and 1% penicillin/streptomycin and cultured in a 37° C., 5% CO2 incubator. The experiment was performed according to the steps of inoculation, transfection, sample treatment and confirmation. Particularly, CV-1 cells were inoculated in a 96 well-plate (5000 cells/well), followed by transfection 24 hours later. Full length PPARs plasmid DNA, reporter DNA confirming PPARs activity owing to its luciferase activity, β-galactosidase DNA providing information on transfection efficiency, and transfection reagent were used for the transfection. Samples were dissolved in dimethylsulfoxide (DMSO), which were treated to the cells via media at different concentrations. After culturing the cells in the incubator for 24 hours, the cells were lysed by using lysis buffer. Luciferase activity and β-galactosidase activity were measured with Luminometer and a microplate reader. The obtained values of luciferase were modified by the values of β-galactosidase. A graph was made with those values and EC50 was calculated.

For a further assay, the target named is T2, hPPARγ (Homo sapiens, UniProt P37231).
T2 construct: Full length PPARs plasmid DNA; expressed in transfected cells; host or cells: CV-1 cells
T2 sequence (P37231 1-505): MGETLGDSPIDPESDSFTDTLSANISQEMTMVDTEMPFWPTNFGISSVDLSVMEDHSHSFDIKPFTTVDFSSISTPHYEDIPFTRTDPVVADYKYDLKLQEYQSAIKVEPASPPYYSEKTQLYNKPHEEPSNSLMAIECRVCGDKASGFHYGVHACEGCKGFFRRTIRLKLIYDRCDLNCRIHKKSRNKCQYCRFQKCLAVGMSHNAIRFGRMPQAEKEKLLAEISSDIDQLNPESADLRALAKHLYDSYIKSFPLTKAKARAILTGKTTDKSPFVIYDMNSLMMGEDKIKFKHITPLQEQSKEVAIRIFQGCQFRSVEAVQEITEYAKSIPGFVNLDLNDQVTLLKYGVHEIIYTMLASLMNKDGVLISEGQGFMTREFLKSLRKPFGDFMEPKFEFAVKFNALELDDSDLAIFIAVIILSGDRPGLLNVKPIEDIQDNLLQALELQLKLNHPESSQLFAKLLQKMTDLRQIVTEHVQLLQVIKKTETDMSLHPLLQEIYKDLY
The assay is described as follows: Transfection assay (luciferase reporter), PPARγ. To be noted: CV-1 cells, full length PPAR plasmid, 24 hours. The assay is classed as cell-based. As to the method:
as §1, §2

The nature of assay [1]: Obesity inhibitory effect, high-fat feed mice. To be noted: 10 mg/kg/day oral, 60 days, feeds containing 35% fat. The assay is classed as in vivo, C57BL/6 mice. As to the method: Obesity Inhibitory Effect
An animal test using mice was performed to confirm the in vivo effect of the compound of the present invention. C57BL/6 (SLC Co.) mice at 8 weeks were used. To induce obesity, feeds containing 35% fat were given. While feeding such high-fat feeds for 60 days, vehicle, S14, S46 and S106 (10 mg/kg/day) were orally administered.

Assay [2] can be described thus: Muscle endurance test (treadmill) in adult mice with forced exercise. The assay is classed as in vivo, C57BL/6 mice. To be noted: 10 mg/kg oral, adult mice at 10 weeks, 30 days treadmill exercise. As to the method: Particularly, S14, S46 and S106 were orally administered to C57BL/6 mice at 10 weeks at the concentration of 10 mg/kg, during which the mice were forced to exercise. The exercise was performed with treadmill for […] once a day for 30 days, precisely at the speed of 2 meter/min for the first 5 minutes, at 5 meter/min for 5 minutes, at 8 meter/min for 5 minutes and at 20 meter/min for the last 5 minutes. At the finish, muscle endurance and muscle function enhancing effect was tested by using treadmill. As a result, the time (S14 treated group: 1.5 fold, S46 treated group: 1.3 fold, S106 treated group: 1.4 fold increased) and distance (S14 treated group: 1.5 fold, S46 treated group: 1.3 fold, S106 treated group: 1.4 fold increased) of exercise were all increased in the treatment group, compared with the control.

Assay [3] is described as follows: Morris water maze test, treatment during pregnancy and lactation. To be noted: 10 mg/kg oral to pregnant mice in pregnancy and lactation; control 24.2 sec. The assay is classed as in vivo. As to the method: An animal test was performed to investigate the therapeutic effect of the compound of the present invention on dementia and Parkinson's disease based on the memory improving effect thereof. To confirm the effect of the compound of the present invention in the period of brain development, the compound was orally administered to pregnant mice at the concentration of 10 mg/kg in the periods of pregnancy and lactation. Morris water maze test was performed to detect any changes of the brain functions of the treatment group and the control group. This test facilitates the study of spatial learning and memory, which largely depends on the hippocampus in the brain.

Assay [4] can be described thus: Morris water maze test in LPS brain disease animal model. The assay is classed as in vivo, C57BL/6 mice. As to the method: The therapeutic effect of the compound of the present invention on dementia and Parkinson's disease based on the memory improving effect thereof was investigated using brain disease animal model (C57BL/6 mice at 10 weeks). First, LPS was injected into the mouse brain to construct brain disease animal model. The mice were divided into four groups according to the administration and exercise. The exercise was performed with treadmill at the speed of 2 meter/min for the first 5 minutes, at 5 meter/min for 5 minutes, at 8 meter/min for 5 minutes and at 20 meter/min for the last 5 minutes. At the finish, Morris water maze test was performed. As a result, the therapeutic effect of the compound of the invention on dementia and Parkinson's disease via memory enhancement by the compound and exercise was confirmed in the brain disease animal model.

Take `Cc1cc(SC(Cc2ccccc2)c2ccc(-c3ccc(C(F)(F)F)cc3)nc2)ccc1OCC(=O)O` (stereo not drawn) [Compound 106]: the “EC50 hPPARα” value at hPPARα is on record as “ia”. Moreover, on hPPARγ, the “EC50 hPPARγ” value was “ia”. The “weight increase compared with the vehicle group” value (“weight increase” below) in assay [1] was determined as 37%. Also, in assay [2], the “distance of exercise, increase compared with the control” value (shortened to “distance of exercise, increase”) was determined as 1.4 fold. Further, the “time of exercise, increase compared with the control” value (“time of exercise, increase” below) in assay [2] was 1.4 fold. Also, the “average time spent to find the platform” value in assay [3] was 6.1 s. For the same molecule, the “Results of water maze test” value turned out to be 23 s in assay [4] (Exercise (X)) and 15 s in assay [4] (Exercise (◯)).

With `Cc1cc(SC(Cc2ccccc2)c2ccc(-c3cc(F)c(F)c(F)c3)cc2)ccc1OCC(=O)O` (stereo not drawn) [Compound 46], at hPPARα, the “EC50 hPPARα” value is reported as “ia”. Besides, the “EC50 hPPARγ” value at hPPARγ is reported as “ia”. Moreover, the “weight increase” value in assay [1] is on record as 43%. Further, in assay [2], the “distance of exercise, increase” value turned out to be 1.3 fold and the “time of exercise, increase” value is 1.3 fold. Besides, the “average time spent to find the platform” value in assay [3] was found to be 7.8 s. Also, the “Results of water maze test” value in assay [4] (Exercise (X)) was 27 s. For the same molecule, the “Results of water maze test” value in assay [4] (Exercise (◯)) worked out at 18 s.

`Cc1cc(SC(Cc2ccccc2)c2ccc(-c3ccc(C(F)(F)F)cc3)cc2)ccc1OCC(=O)O` (stereo not drawn) [Compound S14]: the “EC50 hPPARα” value at hPPARα is “ia”. On hPPARγ, the “EC50 hPPARγ” value is given as “ia”. Besides, the “weight increase” value in assay [1] is recorded as 31%. Besides, in assay [2], the “distance of exercise, increase” value is 1.5 fold and the “time of exercise, increase” value is 1.5 fold. Further, the “average time spent to find the platform” value in assay [3] was 5.2 s. In addition, the “Results of water maze test” value in assay [4] (Exercise (X)) amounted to 21 s. Also, the “Results of water maze test” value in assay [4] (Exercise (◯)) amounted to 12 s.
